As a reminder, the IC50 is the concentration that gives 50% inhibition.

Here are results for 17 molecules from US20260137697A1, “THIAZOLO[5,4-D]PYRIMIDINE COMPOUNDS, COMPOSITIONS COMPRISING THEM AND USES THEREOF” (University de Montreal, priority 2022, published 2026).

Bounds are passed on as bounds.

The target of experiment [1] is T1, CRAF (Homo sapiens, UniProt P04049).
T1 construct: fused on or other part: GST tag (N-terminal according to the vendor's product)
Briefly: CRAF kinase activity assay (ADP-Glo). It counts as biochemical. The conditions noted are these: Table 3; 10 μM ATP, kinase-dead MEK1 substrate. The procedure:
(§1) Compound preparation: solid samples of each substance in 1dram vials were suspended in DMSO (Fisher Scientific) at a stock concentration of 20 mM. Stocks were kept at −20° C. and protected from light. If solubility of the compound at 20 mM appeared to be an issue, the initial concentration of the DMSO stock was changed to 10 mM or 5 mM.
(§2) In vitro enzymatic reactions were used for evaluating compounds intrinsic activity against BRAF, CRAF and ARAF. For BRAF and CRAF, 0.375 nM of purified GST-tagged kinases (cat. No. B4062-10UG and cat. No. R1656-10UG respectively from Millipore Sigma) were incubated with 75 nM of kinase-dead MEK1 substrate (cat. No. 40075; BPS Bioscience) in the presence of 10 μM of Ultrapure ATP (cat. No. V9102; Promega; part V915A) with and without the test compound in a buffer containing 50 mM HEPES pH 7.5, 10 mM MgCl2, 1 mM EDTA, 0.01% Brij-35 and 2 mM DTT. Separate reactions were performed with the MEK1 substrate and ATP as a blank control. ARAF kinase reactions were rigorously the same with the exception that kinase concentration was raised to 3.75 nM (cat. No. 1768-0000-1; Reaction Biology).
(§3) For compound treatment, 5 μL/well of test substance solution are placed in a 384-well proxyplate (Perkin Elmer) and mixed with 2× concentrated kinase reactions. The dilution series is selected so that nine concentrations cover a range from 100 nM to 0.01 nM. […] The final concentration of DMSO in the assay is set at 0.05%.
(§4) BRAF and CRAF kinase reactions were carried out for a total of 2 hours at 30° C. and then stopped by 1/2 dilution in ADP-Glo Reagent (cat. No. V9102; Promega; part V912C). Reactions were then incubated for 1 h at room temperature before addition of one volume of Kinase Detection Reagent (cat. No. V9102; Promega; part V917A). Plates were then equilibrated at room temperature for 30 minutes before detection of luminescence on a Synergy Neo2 plate reader (Biotek). The effect of each compound dilution on BRAF and CRAF kinase activity was expressed as % inhibition and calculated as follows. First, the internal 100% inhibition control (average of luminescence in kinase reactions comprising kinase dead MEK1 substrate alone) was subtracted from each data point. The average of DMSO (vehicle) controls (set as 0% inhibition) was established and used to calculate % inhibition:
(§5) IC50 values were obtained by plotting the kinase inhibition values and fitting the dose-activity curves using a log(agonist) versus response—variable slope (four parameters) function using either GraphPadPrism (V7.0) or Dotmatics Screening Ultra platform. Standards included in the ARAF kinase assay were Belvarafenib (MedChem Express cat. No. HY-109080; CAS No. 1446113-23-0), LXH254 (MedChem Express cat. No. HY-112089; CAS No. 1800398-38-2) and BGB283 (cat. No. HY-18957; CAS No. 1446090-79-4).
(ADP-Glo turns the ADP formed in a reaction into a luminescent signal.)

Experiment [2] concerns pERK, HCT116 cells. Nature of the experiment: Phospho-ERK inhibition, AlphaLISA p-ERK 1/2, HCT-116. Format: cell-based, human. The settings on record: Table 3; for IC50: HCT116 cells (KRAS G13D), 1 h treatment; for HCT116 pERK (Ymin %): lowest % inhibition value of the pERK IC50 curve, above −20% = no paradoxical induction. The procedure: All cancer cell lines (A375, A101D, A2058, RKO, HT29 SK-MEL 30, IPC298, HepG2, HCT-116, Lovo, SW620, SW480, NCI-H358, NCI-H2122, Calu-6, NCIH2087, NCIH1755, NCIH1666 and Mewo) were obtained from ATCC and cultured in RPM1-1640 medium (Gibco) supplemented with 5% heat inactivated fetal bovine serum (FBS, Wisent) at 37° C. under 5% CO2. Cells were maintained in T175 flasks (Greiner). They were passaged by removing the culture medium, washing once in 10 mL of room temperature Phosphate Buffered Saline (PBS; Wisent) and incubating at 37° C. with 2 mL of 0.05% Trypsin (Thermo-Fisher). Trypsin was then inactivated by adding complete growth medium and the cells were then replated in a T175 culture dish at the appropriate dilution. All cell lines were routinely tested for mycoplasma contamination. Tissue type and mutational status of each cell line can be found in Table B.
(c) Measurement of Phospho-ERK Inhibition in Cultivated Human Cancer Cell Lines by the AlphaLISA® SureFire® Ultra™ p-ERK 1/2 (Thr2O2/Tyr204)
AlphaLISA® SureFire® Ultra™ p-ERK 1/2 (Thr202/Tyr204) analysis was conducted on cells plated in 100 μL of complete RPMI-1640 growth medium in 96-well flat-bottomed transparent dishes (Costar) at a density indicated in Table C. Cells were maintained overnight at 37° C. under 5% CO2 before treatment with compounds' dilution series for one hour. The cell density in cells/cm^2 corresponds to cell number divided by the area of one well of a 96-well plate (0.143 cm^2).
In a dilution series 100 μL/well of test substance dilution prepared in complete RPMI-1640 growth media was added to the cells. The dilution series is selected so that ten concentrations cover a range from 10 μM to 0.33 nM. If necessary, the initial concentration of 10 μM is increased to 100 μM or lowered to 1 μM (as in the case of A375 and H1666 cells, which are generally more sensitive to the compounds) and further dilution is carried out accordingly. The final concentration of DMSO in the assay is set at 0.5%.
After treatment, media was removed, and cells were lysed in 50 μL of 1× AlphaScreen Ultra Lysis Buffer (Perkin Elmer). The AlphaLISA® SureFire® Ultra™ p-ERK 1/2 (Thr202/Tyr204) (PerkinElmer) reactions were performed with 5 μL of cell lysate according to the manufacturer's specifications in 384-well proxyplates (Perkin Elmer) followed by overnight incubation of the reactions at room temperature in a humidified chamber. After completion of the reactions, the signals were recorded on an EnVision plate reader (Perkin Elmer) using built in AlphaLISA® settings.
The effect of each compound dilution on the pERK signal was expressed in % inhibition and calculated as follows. An internal 100% inhibition control (1 μM trametinib, cat. No. HY-10999; MedChem Express; CAS No. 871700-17-3) was included in each plate and used as a measure of pERK background. First, the value obtained for trametinib was subtracted from each data point. The average of DMSO (vehicle) controls (set as 0% inhibition) was established and used to calculate % inhibition:
The ability of each compound to inhibit pERK signal was expressed as an IC50 value obtained by plotting the inhibition values for each data point of a dilution series and fitting the obtained curves using a log(agonist) versus response—variable slope (four parameters) function using GraphPadPrism (V7.0) or Dotmatics Screening Ultra platform.
When present, paradoxical pERK induction is inferred from the negative % inhibition values observed in the pERK IC50 curves of a compound.
On the technique in general: Bead proximity is the source of the signal in Alpha formats.

In experiment [3] the target is T2, BRAF (Homo sapiens, UniProt P15056).
T2 construct: GST; purchased Millipore Sigma B4062-10UG
T2 sequence (P15056 whole entry): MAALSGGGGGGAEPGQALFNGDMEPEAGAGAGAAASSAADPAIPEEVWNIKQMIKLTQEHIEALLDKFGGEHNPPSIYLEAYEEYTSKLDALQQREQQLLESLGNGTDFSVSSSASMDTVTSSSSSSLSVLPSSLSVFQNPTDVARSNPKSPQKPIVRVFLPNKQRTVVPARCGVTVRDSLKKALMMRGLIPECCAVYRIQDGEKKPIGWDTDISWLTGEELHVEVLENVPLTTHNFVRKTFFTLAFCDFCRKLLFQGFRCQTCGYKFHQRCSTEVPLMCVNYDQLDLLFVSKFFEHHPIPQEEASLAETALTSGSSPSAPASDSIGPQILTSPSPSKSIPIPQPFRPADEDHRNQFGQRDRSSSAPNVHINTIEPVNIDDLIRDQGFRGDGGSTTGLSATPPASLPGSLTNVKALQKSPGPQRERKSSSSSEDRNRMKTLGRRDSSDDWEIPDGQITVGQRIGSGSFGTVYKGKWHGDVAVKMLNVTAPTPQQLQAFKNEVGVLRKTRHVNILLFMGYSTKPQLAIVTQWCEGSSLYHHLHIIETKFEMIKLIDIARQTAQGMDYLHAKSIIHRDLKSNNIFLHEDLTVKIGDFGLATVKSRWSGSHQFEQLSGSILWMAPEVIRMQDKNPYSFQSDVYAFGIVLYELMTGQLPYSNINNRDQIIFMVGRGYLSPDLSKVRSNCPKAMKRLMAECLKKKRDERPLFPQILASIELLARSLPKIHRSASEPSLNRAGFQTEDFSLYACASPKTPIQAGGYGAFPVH
Briefly: BRAF kinase activity assay (ADP-Glo). It counts as biochemical. The settings on record: Table 3; 10 μM ATP, kinase-dead MEK1 substrate. The procedure:
as §1, §2, §3, §4, §5

T1 sequence (P04049 whole entry Y340E/Y341E, form open, the tested form may be a part): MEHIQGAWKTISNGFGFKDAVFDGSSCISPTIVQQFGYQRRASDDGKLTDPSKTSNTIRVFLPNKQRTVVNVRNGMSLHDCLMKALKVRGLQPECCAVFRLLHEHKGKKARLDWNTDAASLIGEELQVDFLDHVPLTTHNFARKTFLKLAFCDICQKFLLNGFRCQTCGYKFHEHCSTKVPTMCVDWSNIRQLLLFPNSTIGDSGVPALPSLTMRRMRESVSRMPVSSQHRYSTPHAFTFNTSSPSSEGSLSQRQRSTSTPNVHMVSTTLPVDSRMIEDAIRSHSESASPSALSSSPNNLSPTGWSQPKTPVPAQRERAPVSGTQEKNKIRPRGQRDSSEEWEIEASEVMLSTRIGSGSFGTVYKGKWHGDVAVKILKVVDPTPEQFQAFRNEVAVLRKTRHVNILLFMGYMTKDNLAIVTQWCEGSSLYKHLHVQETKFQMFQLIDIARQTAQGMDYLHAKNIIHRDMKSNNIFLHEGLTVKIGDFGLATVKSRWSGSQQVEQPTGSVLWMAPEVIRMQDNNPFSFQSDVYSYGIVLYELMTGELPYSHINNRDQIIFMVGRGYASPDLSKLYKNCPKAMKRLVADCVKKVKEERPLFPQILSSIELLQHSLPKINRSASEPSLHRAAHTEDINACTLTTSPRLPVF

With `CS(=O)(=O)C1CCN(c2cccc3c2ncn3-c2nc3c(Nc4c(F)ccc(NS(=O)(=O)c5cccc(Cl)c5Cl)c4F)ncnc3s2)CC1` [Example 153], the IC50 was < 10 nM in experiment [1], < 500 nM in experiment [2] and 1 to 10 nM in experiment [3]. For the same molecule, in experiment [2], the “HCT116 pERK (Ymin %)” value is reported as −5%.

Turning to `Cc1c(F)cccc1S(=O)(=O)Nc1ccc(F)c(Nc2ncnc3sc(-n4cc(C(=O)N(C)Cc5ccncc5)c5ccccc54)nc23)c1F` [Example 30], the IC50 in experiment [1] was 10 to 50 nM; in experiment [2], < 500 nM; in experiment [3] it was 1 to 10 nM. In addition, in experiment [2], the “HCT116 pERK (Ymin %)” value is on record as −3%.

As to `O=C1CCCN1c1cn(-c2nc3c(Nc4c(F)ccc(NS(=O)(=O)c5cccc(Cl)c5Cl)c4F)ncnc3s2)c2ccccc12` [Example 110, 2,3-dichloro-N-[2,4-difluoro-3-[[2-[3-(2-oxopyrrolidin-1-yl)indol-1-yl]thiazolo[5,4-d]pyrimidin-7-yl]amino]phenyl]benzenesulfonamide], the IC50 in experiment [1] was 10 to 50 nM; in experiment [2] (Homo sapiens, HCT-116), < 500 nM; in experiment [3], 1 to 10 nM.

For the molecule `COc1cccc2c1ncn2-c1nc2c(Nc3c(F)ccc(NS(=O)(=O)c4cccc(Cl)c4Cl)c3F)ncnc2s1` [Example 99], the IC50 in experiment [1] was < 10 nM; in experiment [2] (Homo sapiens, HCT-116), < 500 nM; in experiment [3], 1 to 10 nM.

For the molecule `O=C(c1cn(-c2nc3c(Nc4c(F)ccc(NS(=O)(=O)c5cccc(Cl)c5Cl)c4F)ncnc3s2)c2ccccc12)N1C2CCC1COC2` [Example 51], the IC50 was < 10 nM in experiment [1], < 500 nM in experiment [2] and < 1 nM in experiment [3]. Besides, the “HCT116 pERK (Ymin %)” value in experiment [2] is −1%.

Regarding `COc1nccc2c1ncn2-c1nc2c(Nc3c(F)ccc(NS(=O)(=O)c4cccc(Cl)c4Cl)c3F)ncnc2s1` [Example 105], the IC50 in experiment [1] is < 10 nM; in experiment [2], < 500 nM; in experiment [3] it was 1 to 10 nM. Further, in experiment [2], the “HCT116 pERK (Ymin %)” value is given as 4%.

With `O=S(=O)(Nc1ccc(F)c(Nc2ncnc3sc(-n4cnc5c(F)cccc54)nc23)c1F)c1ccccc1Cl` [Example 38], the concentration for half-maximal inhibition (IC50) in experiment [1] is < 10 nM; in experiment [2], 500 to 1000 nM; in experiment [3], 1 to 10 nM. Moreover, the “HCT116 pERK (Ymin %)” value in experiment [2] was −6%.

With `COCCOCCOc1cccc2c1ncn2-c1nc2c(Nc3c(F)ccc(NS(=O)(=O)c4cccc(Cl)c4Cl)c3F)ncnc2s1` [Example 131], the IC50 is < 10 nM in experiment [1], < 500 nM in experiment [2] and 1 to 10 nM in experiment [3]. Besides, in experiment [2], the “HCT116 pERK (Ymin %)” value is recorded as 0%.

Take `CCC(=O)c1cn(-c2nc3c(Nc4c(F)ccc(NS(=O)(=O)c5cccc(Cl)c5Cl)c4F)ncnc3s2)c2ccccc12` [Example 91]: the IC50 was > 50 nM in experiment [1]; 1000 to 10000 nM in experiment [2] (Homo sapiens, HCT-116); > 10 nM in experiment [3].

For the molecule `O=S(=O)(Nc1ccc(F)c(Nc2ncnc3sc(-n4cc(S(=O)(=O)N5C6CCC5COC6)c5ccccc54)nc23)c1F)c1cccc(Cl)c1Cl` [Example 67], the IC50 in experiment [1] is > 50 nM; in experiment [2] it was < 500 nM; in experiment [3] it was 1 to 10 nM. Besides, in experiment [2], the “HCT116 pERK (Ymin %)” value is 0%.

For the molecule `O=C(c1cn(-c2nc3c(Nc4c(F)ccc(NS(=O)(=O)c5cccc(Cl)c5Cl)c4F)ncnc3s2)c2ccccc12)N1CC2CC1CO2` (stereo not drawn) [Example 84], the IC50 is < 10 nM in experiment [1], < 500 nM in experiment [2] and 1 to 10 nM in experiment [3]. Moreover, the “HCT116 pERK (Ymin %)” value in experiment [2] turned out to be 18%.

For the molecule `Cc1c(F)cccc1S(=O)(=O)Nc1ccc(F)c(Nc2ncnc3sc(-n4nc(C(=O)NCc5cccnc5)c5ccccc54)nc23)c1F` [Example 24], the IC50 in experiment [1] is 10 to 50 nM; in experiment [2], 500 to 1000 nM; in experiment [3], > 10 nM. In addition, the “HCT116 pERK (Ymin %)” value in experiment [2] stood at 2%.

Regarding `COCCNS(=O)(=O)c1cn(-c2nc3c(Nc4c(F)ccc(NS(=O)(=O)c5cccc(Cl)c5Cl)c4F)ncnc3s2)c2ccccc12` [Example 62], the IC50 in experiment [1] is < 10 nM; in experiment [2] it was < 500 nM; in experiment [3], 1 to 10 nM. For the same molecule, the “HCT116 pERK (Ymin %)” value in experiment [2] came to 2%.

Turning to `O=S(=O)(Nc1ccc(F)c(Nc2ncnc3sc(-n4cnc5c(F)c(F)ccc54)nc23)c1F)c1cccc(Cl)c1Cl` [Example 49], the IC50 in experiment [1] is < 10 nM; in experiment [2] (Homo sapiens, HCT-116), 500 to 1000 nM; in experiment [3], 1 to 10 nM.

Turning to `O=S(=O)(Nc1ccc(F)c(Nc2ncnc3sc(-n4cnc5cc(F)c(F)cc54)nc23)c1F)c1cccc(Cl)c1Cl` [Example 19], the IC50 in experiment [1] was < 10 nM; in experiment [2], 500 to 1000 nM; in experiment [3], 1 to 10 nM. Also, in experiment [2], the “HCT116 pERK (Ymin %)” value is −14%.

Consider `O=C(c1cn(-c2nc3c(Nc4c(F)ccc(NS(=O)(=O)c5cccc(Cl)c5Cl)c4F)ncnc3s2)c2ccccc12)N1C2CCC1CN(CCO)C2` [Example 98], for which the IC50 in experiment [1] is < 10 nM; in experiment [2] (Homo sapiens, HCT-116) it was < 500 nM; in experiment [3], 1 to 10 nM.

As to `COC1CCN(c2cccc3c2ncn3-c2nc3c(Nc4c(F)ccc(NS(=O)(=O)c5cccc(Cl)c5Cl)c4F)ncnc3s2)CC1` [Example 139], the IC50 in experiment [1] is 10 to 50 nM; in experiment [2], < 500 nM; in experiment [3] it was 1 to 10 nM. Further, in experiment [2], the “HCT116 pERK (Ymin %)” value is listed as −13%.
